Our source for the MIC values is DBAASP.

Among the test systems are Escherichia coli BL21; Candida albicans; Escherichia coli UB1005.
Common to all, as to assay: ≥ marks a high value that may be exact or a test limit, other limits are often not marked, values filed in µg/mL are converted to µM
The test system of experiment [1] is Pseudomonas aeruginosa PAO1.
In experiment [2] the test system is Streptococcus pyogenes M1T1 5448.
Experiment [3] concerns Staphylococcus aureus NCTC 8325.
Experiment [4] has as its system Escherichia coli ATCC 25922.
Experiment [5] concerns Candida albicans ATCC 90028.
Experiment [6] deals with Salmonella enterica subsp. enterica serovar Enteritidis.
For experiment [7], the system named is Staphylococcus aureus ATCC 29213.
The subject of experiment [8] is Staphylococcus aureus ATCC 25923.
Experiment [9] relates to Salmonella enterica serovar Typhimurium.
Experiment [10] concerns Staphylococcus epidermidis.
The subject of experiment [11] is Pseudomonas aeruginosa H103.
The test system of experiment [12] is Enterococcus faecalis ATCC 29212.

Values after ≈ are worked out from the molar mass of the structure shown. A value given as a limit tells only on which side of the number the result lay.

On to `CC[C@H](C)[C@H](NC(=O)[C@H](CCCN=C(N)N)NC(=O)[C@H](C)NC(=O)[C@H](CCCCN)NC(=O)[C@H](CCCN=C(N)N)NC(=O)CNC(=O)[C@@H](NC(=O)[C@H](CCCCN)NC(=O)[C@H](CCCN=C(N)N)NC(=O)[C@@H](NC(=O)[C@H](CCC(=O)O)NC(=O)[C@H](CCCN=C(N)N)NC(=O)[C@H](CCCN=C(N)N)NC(=O)[C@H](CC(C)C)NC(=O)[C@H](Cc1ccc(O)cc1)NC(=O)[C@H](C)NC(=O)[C@H](CCCCN)NC(=O)[C@@H](NC(=O)[C@H](Cc1c[nH]c2ccccc12)NC(=O)[C@H](CCC(N)=O)NC(=O)[C@H](CCCN=C(N)N)NC(=O)CNC(=O)[C@H](C)N)[C@@H](C)CC)[C@@H](C)CC)C(C)C)C(=O)N[C@@H](C)C(=O)N[C@@H](Cc1c[nH]c2ccccc12)C(=O)O` [AGRQWIKAYLRREIRKVGRKARIAW], for which the figures for the MIC (in the experiment with Escherichia coli BL21; in experiment [1]; in experiment [2]) were 1 µM (≈ 3.08 µg/mL), 16 µM (≈ 49.3 µg/mL) and 2 µM (≈ 6.17 µg/mL), respectively.
For `CC[C@H](C)[C@H](NC(=O)[C@H](CCCN=C(N)N)NC(=O)[C@H](CCC(N)=O)NC(=O)[C@H](Cc1c[nH]c2ccccc12)NC(=O)CNC(=O)[C@H](C)N)C(=O)N[C@@H](CCCCN)C(=O)N[C@@H](C)C(=O)N[C@@H](Cc1ccc(O)cc1)C(=O)N[C@@H](CC(C)C)C(=O)N[C@@H](CCCN=C(N)N)C(=O)N[C@@H](CCCN=C(N)N)C(=O)N[C@@H](CCC(=O)O)C(=O)N[C@H](C(=O)N[C@@H](CCCN=C(N)N)C(=O)N[C@@H](CCCCN)C(=O)N[C@@H](CCCN=C(N)N)C(=O)NCC(=O)N[C@@H](CCCN=C(N)N)C(=O)N[C@@H](CCCCN)C(=O)N[C@@H](C)C(=O)N[C@H](C(=O)N[C@H](C(=O)N[C@@H](C)C(=O)N[C@@H](Cc1c[nH]c2ccccc12)C(=O)O)[C@@H](C)CC)C(C)C)[C@@H](C)CC` [AGWQRIKAYLRREIRKRGRKAVIAW] the same measures were 1 µM (≈ 3.08 µg/mL), 2 µM (≈ 6.17 µg/mL) and 2 µM (≈ 6.17 µg/mL).
For `CC[C@H](C)[C@H](NC(=O)[C@H](CCCN=C(N)N)NC(=O)[C@H](CCC(N)=O)NC(=O)[C@@H](NC(=O)[C@H](Cc1c[nH]c2ccccc12)NC(=O)[C@H](C)N)[C@@H](C)O)C(=O)N[C@@H](CCCCN)C(=O)N[C@@H](C)C(=O)N[C@@H](Cc1ccc(O)cc1)C(=O)N[C@@H](CC(C)C)C(=O)N[C@@H](CCCN=C(N)N)C(=O)N[C@@H](CCCN=C(N)N)C(=O)N[C@@H](CCC(=O)O)C(=O)N[C@H](C(=O)N[C@@H](CCCN=C(N)N)C(=O)N[C@@H](CCCCN)C(=O)N[C@@H](CCCN=C(N)N)C(=O)NCC(=O)N[C@@H](CCCN=C(N)N)C(=O)N[C@@H](CCCCN)C(=O)N[C@@H](C)C(=O)N[C@H](C(=O)N[C@H](C(=O)N[C@@H](C)C(=O)N[C@@H](Cc1c[nH]c2ccccc12)C(=O)O)[C@@H](C)CC)C(C)C)[C@@H](C)CC` [AWTQRIKAYLRREIRKRGRKAVIAW] the same measures were 2 µM (≈ 6.25 µg/mL), 8 µM (≈ 25 µg/mL) and 2 µM (≈ 6.25 µg/mL).
Consider `CC[C@H](C)[C@H](NC(=O)CNC(=O)[C@H](CO)NC(=O)[C@@H](NC(=O)[C@@H](NC(=O)[C@H](CCCCN)NC(=O)[C@H](C)NC(=O)[C@H](CC(C)C)NC(=O)[C@H](C)NC(=O)CNC(=O)[C@H](CC(C)C)NC(=O)[C@@H](N)Cc1ccccc1)[C@@H](C)CC)[C@@H](C)CC)C(=O)N[C@@H](Cc1ccccc1)C(N)=O` [FLGALAKIISGIF], for which the MIC is 4 µM (≈ 5.39 µg/mL) in [3] and more than 100 µM in [4].
`CC[C@H](C)[C@@H]1NC(=O)[C@H](C)NC(=O)[C@@H](NC(=O)[C@H](Cc2ccccc2)NC(=O)[C@@H](NC(=O)[C@H](CCCCN)NC(=O)[C@H](CO)NC(=O)[C@H](Cc2ccccc2)NC(=O)[C@@H](NC(=O)[C@H](CC(N)=O)NC(=O)[C@H](C)NC(=O)[C@H](C)NC(=O)[C@@H](NC(=O)[C@H](CO)NC(=O)[C@H](C)NC(=O)[C@@H](NC(=O)[C@@H](NC(=O)[C@@H]2CCCN2C(=O)[C@H](CC(C)C)NC(=O)[C@@H](N)Cc2ccccc2)[C@@H](C)CC)[C@@H](C)CC)C(C)C)C(C)C)[C@@H](C)CC)CSSC[C@@H](C(=O)O)NC(=O)[C@H](CCCCN)NC(=O)[C@H](CCCCN)NC(=O)[C@H](CO)NC1=O` [FLPIIASVAANVFSKIFCAISKKC]: the values for the MIC in experiment [3], in [4] and in [5] were 27 µM (≈ 69.4 µg/mL), 78 µM (≈ 200 µg/mL) and 29 µM (≈ 74.5 µg/mL), respectively.
Regarding `CC[C@H](C)[C@H](NC(=O)[C@H](CO)NC(=O)[C@@H]1CCCN1C(=O)[C@H](CC(C)C)NC(=O)[C@@H](NC(=O)[C@H](CCCCN)NC(=O)[C@H](C)NC(=O)[C@H](C)NC(=O)[C@H](CC(C)C)NC(=O)CNC(=O)[C@H](C)NC(=O)[C@@H](NC(=O)[C@@H](NC(=O)[C@@H]1CCCN1C(=O)[C@H](CC(C)C)NC(=O)[C@@H](N)Cc1ccccc1)C(C)C)C(C)C)C(C)C)C(=O)N[C@H](C(=O)N[C@H]1CSSC[C@@H](C(=O)O)NC(=O)[C@H](CCCCN)NC(=O)[C@H](CCCCN)NC(=O)[C@H]([C@@H](C)O)NC(=O)[C@H](C(C)C)NC(=O)[C@H](C)NC1=O)[C@@H](C)CC` [FLPVVAGLAAKVLPSIICAVTKKC], the MIC in experiment [6] was not below 52.4 µM; in [3], 7 µM (≈ 17.1 µg/mL); in experiment [7], 2.32 µM (≈ 5.65 µg/mL).
`CC[C@H](C)[C@H](N)C(=O)N1CCC[C@H]1C(=O)N[C@@H](Cc1cnc[nH]1)C(=O)N[C@@H](C)C(=O)N[C@H](C(=O)N[C@@H](CCCCN)C(=O)N[C@@H](C)C(=O)N[C@H](C(=O)N[C@@H](CO)C(=O)N[C@@H](CC(=O)O)C(=O)N[C@@H](CC(C)C)C(=O)N[C@H](C(N)=O)[C@@H](C)CC)[C@@H](C)CC)C(C)C` [IPHAVKAISDLI]: the figures for the MIC in [3], in experiment [4] and in experiment [5] were not below 200 µM, more than 200 µM and not below 200 µM, respectively.
As for `CC[C@H](C)[C@H](NC(=O)[C@@H](NC(=O)[C@@H](NC(=O)[C@H](CCCN=C(N)N)NC(=O)[C@H](CCCN=C(N)N)NC(=O)[C@H](C)NC(=O)[C@H](CC(C)C)NC(=O)[C@@H](N)CCCN=C(N)N)C(C)C)C(C)C)C(=O)N[C@@H](CCCN=C(N)N)C(=O)N[C@H](C(=O)N[C@@H](C)C(=O)N[C@@H](CCCN=C(N)N)C(N)=O)C(C)C` [RLARRVVIRVAR], the MIC is 43 µM (≈ 63 µg/mL) in experiment [8]; 21.2 µM (≈ 31 µg/mL) in experiment [9]; 85.3 µM (≈ 125 µg/mL) in the experiment on Candida albicans; 10.9 µM (≈ 16 µg/mL) in [10]; not below 43 µM in [11]; 85.3 µM (≈ 125 µg/mL) in [12]. In the experiment on Escherichia coli UB1005, this compound returned an MIC of 10.9 µM (≈ 16 µg/mL).
Turning to `CC[C@H](C)[C@H](NC(=O)[C@H](CCCCN)NC(=O)[C@H](Cc1c[nH]c2ccccc12)NC(=O)[C@H](CCCNC(=N)N)NC(=O)[C@@H](N)CCCNC(=N)N)C(=O)N[C@H](C(=O)N[C@H](C(=O)N[C@H](C(=O)N[C@@H](CCCNC(=N)N)C(=O)N[C@@H](Cc1c[nH]c2ccccc12)C(=O)N[C@@H](CCCNC(=N)N)C(=O)N[C@@H](CCCNC(=N)N)C(=O)O)[C@@H](C)CC)C(C)C)C(C)C` [RRWKIVVIRWRR], the MIC is 0.7 µM (≈ 1.21 µg/mL) in experiment [8]; 2.8 µM (≈ 4.83 µg/mL) in [9]; 11.1 µM (≈ 19.1 µg/mL) with Candida albicans; 0.3 µM (≈ 0.517 µg/mL) in experiment [10]; 5.6 µM (≈ 9.66 µg/mL) in experiment [11]; 1.4 µM (≈ 2.41 µg/mL) in experiment [12]. This compound gave an MIC with Escherichia coli UB1005 of 1.4 µM (≈ 2.41 µg/mL).
With `CC[C@H](C)[C@H](NC(=O)[C@H](CCCN=C(N)N)NC(=O)[C@H](CC(C)C)NC(=O)[C@H](CCC(N)=O)NC(=O)[C@@H](N)C(C)C)C(=O)N[C@@H](CCCN=C(N)N)C(=O)N[C@H](C(=O)N[C@@H](CCCN=C(N)N)C(=O)N[C@H](C(=O)N[C@H](C(=O)N[C@@H](CCCN=C(N)N)C(=O)N[C@@H](CCCCN)C(N)=O)[C@@H](C)CC)C(C)C)C(C)C` [VQLRIRVRVIRK], the MIC was determined as 7.81 µM (≈ 12 µg/mL) in experiment [8]; 3.91 µM (≈ 6 µg/mL) in [9]; 3.91 µM (≈ 6 µg/mL) in the experiment on Candida albicans; 1.04 µM (≈ 1.6 µg/mL) in experiment [10]; 3.91 µM (≈ 6 µg/mL) in experiment [11]; 1.95 µM (≈ 3 µg/mL) against Escherichia coli UB1005.

By MIC is commonly meant the lowest concentration found to suppress growth. A lower MIC goes with inhibition by little substance.
